Source: a compilation of properties of binary mixtures (doi:10.1007/s10953-018-0729-9)

Assay: xn = mol fraction of the nth substance listed
Settings: 101.3 kPa

CCCC[n+]1ccn(C)c1.F[P-](F)(F)(F)(F)F + O=C1CCCN1
x1 = 1
Settings	speed of sound [m/s]
303.15 K	1431.7
308.15 K	1419.8
313.15 K	1408.2
318.15 K	1396.8
323.15 K	1385.6

O=C1CCCN1 + CCCC[n+]1ccn(C)c1.F[P-](F)(F)(F)(F)F
speed of sound [m/s]
Settings	303.15 K	308.15 K	313.15 K	318.15 K	323.15 K
x2 = 0	1618	–	1585.4	1569.4	–
x2 = 0.0494	1584.7	–	1553.7	1538.4	1523.2
x2 = 0.1025	1575.2	1560	1545.1	1530.3	–
x2 = 0.1503	1566.5	1551.8	1537.3	1522.9	1508.6
x2 = 0.2215	1553.8	–	1525.6	1511.8	1498
x2 = 0.3376	1532.9	1519.5	1506.3	1493.2	1480.2
x2 = 0.4502	1512.7	1499.9	–	1474.8	1462.4
x2 = 0.5654	1492	1479.6	–	1455.4	1443.5
x2 = 0.6527	1476.3	1464.2	1452.3	1440.5	1428.8
x2 = 0.7421	–	1448.2	1436.5	1424.8	1413.4
x2 = 0.8295	1446.5	1434.6	1422.9	–	–
x2 = 0.8622	1442.6	1430.7	–	1407.5	1396.1
x2 = 0.9019	1438.5	1426.6	1414.8	1403.3	1391.9
x2 = 0.9495	–	1423	1411.2	1399.6	–
